Measurements as given in PubChem BioAssay (NCI).
Values joined by “and” are separate entries in the source; they are usually repeats but may differ in a detail not shown here. Equal values may be shown once.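 A five-concentration, 48-hour dose response in 96-well plates underlies each endpoint, interpolated linearly between surrounding concentrations. GI50 marks 50% less growth. TGI denotes the concentration required for complete inhibition of growth.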 Where a SMILES comes first, the peptide text is derived from it. [ ]: non-standard residue; d: D form. The star is where a group is joined. ξ: configuration not given here. X6 = FC(F)(F)c1cc(NC(=S)*)cc(C(F)(F)F)c1; ξF = NC(Cc1ccccc1)C(=O)O

Tests used:
Assay in all cases: NCI anticancer screen, dose series, 48 h
[1] = system: HCT-15 colon
[2] = system: TK-10 renal
[3] = system: NCI-H522 lung
[4] = system: MOLT-4 leukemia
[5] = system: A498 renal
[6] = system: SK-MEL-5 melanoma
[7] = system: IGROV1 ovarian
[8] = system: KM12 colon
[9] = system: OVCAR-4 ovarian
[10] = system: SNB-19 CNS

SMILES	GI50 [1]	TGI [1]	TGI [2]	GI50 [3]	TGI [3]	GI50 [4]	TGI [4]	GI50 [5]	TGI [5]	GI50 [6]	TGI [6]	GI50 [7]	TGI [7]	GI50 [8]	TGI [8]	GI50 [9]	TGI [9]	GI50 [10]	TGI [10]	GI50 [2]
COC1CCC(N2C(=O)CNc3ncc(-c4ccc(C(C)(C)O)nc4)nc32)CC1 (stereo not drawn)	732 nM and 293 nM	> 36.1 µM	5.58 µM and 1.86 µM	322 nM and 65.6 nM	2.63 µM	1510 nM and 437 nM	> 100 µM	61.4 nM and 42.2 nM	0.769 µM and 0.378 µM	766 nM and 149 nM	2.79 µM and 1.46 µM	0.315 µM and 0.0564 µM	2.8 µM and 1.64 µM	1.2 µM and 0.302 µM	> 40.8 µM	0.568 µM and 0.12 µM	> 7.88 µM and 1.07 µM	2.02 µM and 1.57 µM	> 36.2 µM	
O=C1C=C(Cl)C(=O)C(c2ccc(Cl)cc2)=C1		47.5 µM	35.9 µM		47.4 µM		22.1 µM		50.8 µM		34.3 µM		30.8 µM		> 100 µM		51.6 µM		> 100 µM	
CN/N=C(/Cc1occc(=O)c1O)C(=O)Nc1ccccc1C		> 100 µM	> 100 µM		> 100 µM		> 100 µM		> 100 µM		> 100 µM		> 100 µM		> 100 µM		> 100 µM		> 100 µM	
COc1ccc(C(=O)Cn2c(C(=O)c3ccccc3)nc(-c3ccc(OC)cc3)c2-c2ccc(OC)cc2)cc1	> 100000 nM	> 100 µM	> 100 µM	> 100000 nM	> 100 µM	> 100000 nM	> 100 µM	> 100000 nM	> 100 µM	> 100000 nM	> 100 µM	71.2 µM	> 100 µM	> 100 µM	> 100 µM	> 100 µM	> 100 µM	> 100 µM	> 100 µM	> 100 µM
O=CN/C=C/c1cc(O)ccc1O		28.2 µM	31.6 µM		11.2 µM		> 63.4 µM		> 100 µM		39.3 µM		71.4 µM		> 100 µM		32.2 µM		> 100 µM	
O=C1CC(c2ccc3c(c2)OCO3)Nc2ccccc21 (stereo not drawn)	5610 nM	31 µM	99.4 µM	12900 nM	38.8 µM	12800 nM	64.2 µM	13400 nM	28.7 µM	12600 nM	25.8 µM	10.9 µM	47.8 µM	5.36 µM	20.8 µM	12.2 µM	56.7 µM	12.5 µM	30.2 µM	25.7 µM
CC/C=C\CCC/C=C1/C(=O)C=C[C@@H]1C/C=C\CCCC(=O)OC	2100 nM	5.13 µM	20.1 µM	1910 nM	3.77 µM	2430 nM	8.39 µM	19800 nM	34.7 µM	1880 nM	3.5 µM	3.3 µM	11.5 µM	2.46 µM	6.39 µM	4.27 µM	16.4 µM	4.84 µM	17.7 µM	7.61 µM
Cc1cc(I)cc(CN(C)CCCCN2CCCCC2)c1O	6080 nM	25.8 µM	31.1 µM	17200 nM	38.2 µM	7080 nM	21.8 µM	11400 nM	25.4 µM	3330 nM	10.7 µM	17.7 µM	41 µM	13.6 µM	31.3 µM	28.3 µM	> 100 µM	19 µM	45.9 µM	15.4 µM
O=C1C(Cl)=C(Nc2cccc(Cl)c2)C(=O)N1Cc1ccc(Cl)cc1Cl	98.1 nM	8.84 µM	31.7 µM	265 nM	5.86 µM		> 100 µM	771 nM	7.12 µM	321 nM	4.5 µM	< 0.023 µM	9.15 µM	7.89 µM	39.2 µM	0.508 µM	7.41 µM	0.842 µM	18 µM	11.5 µM
Cc1ccc(N=Nc2ccc(N(CCC#N)CCC#N)cc2C)c(Br)c1		> 100 µM	66.3 µM		> 100 µM		45.1 µM		> 100 µM		56.5 µM		> 100 µM		55.8 µM		> 100 µM		> 100 µM	
COC(=O)[C@@H](NC(=O)CNC(=O)[C@H]1CCCN1C(=O)C(Cc1ccccc1)NC(=S)Nc1cc(C(F)(F)F)cc(C(F)(F)F)c1)C(C)C (stereo partly drawn) (X6-[ξF][dP]GV-OMe)	2290 nM	5.37 µM	18.8 µM	3040 nM	8.65 µM	2280 nM	6.07 µM	2110 nM	7.92 µM	1450 nM	2.79 µM	3.31 µM	10.3 µM	2.88 µM	7.75 µM	3.17 µM	17.6 µM	2.56 µM	9.49 µM	4.45 µM
Cn1cc(C2=C(c3cn(C)c4ncccc34)C(=O)NC2=O)c2ccccc21	7340 nM	> 25 µM	> 25 µM	10200 nM	> 25 µM	7540 nM	> 24 µM	3730 nM	11 µM	6270 nM	> 17.6 µM	15.5 µM	> 25 µM	8.59 µM	> 25 µM	17.8 µM	> 25 µM	11.2 µM	> 25 µM	10.8 µM
O=S1(=O)c2ccccc2NC(c2ccc3ccccc3c2)CC1c1ccccc1F (stereo not drawn)		> 100 µM	> 100 µM		> 100 µM		> 100 µM		> 100 µM		> 100 µM		> 100 µM		> 100 µM		> 100 µM		> 100 µM	
Clc1ccc2c(NCCCCNc3nc(N4CCCCC4)nc4ccccc34)ccnc2c1	1150 nM	3.13 µM	3.5 µM	2040 nM	5.3 µM	1980 nM	5.62 µM	1780 nM	4.62 µM	1770 nM	3.18 µM	1.8 µM	6.59 µM	3.4 µM	13.1 µM	1.59 µM	5.24 µM	3.09 µM	14.2 µM	1.68 µM
O=CC[C@H]1C(=O)C[C@@H]2CCC[C@@H]21		> 100 µM	> 100 µM		> 100 µM		> 100 µM		> 100 µM		> 100 µM		> 100 µM		> 100 µM		> 100 µM		> 100 µM	
O=C(Nc1ccccc1OC(F)(F)F)Nc1n[nH]c2ccccc12	36200 nM	> 100 µM	> 100 µM	33900 nM	> 100 µM	5910 nM	> 100 µM	> 100000 nM	> 100 µM	28700 nM	> 100 µM	4.59 µM	83.6 µM	23.4 µM	> 100 µM	37.7 µM	> 100 µM	78.3 µM	> 100 µM	37.9 µM
O=S(=O)(NC1=NCCN1C(=S)SN1CCn2c1nsc2=S)c1ccc(OC(F)(F)F)cc1	8640 nM	26.2 µM	24.6 µM	2920 nM	9.8 µM	2040 nM	7.39 µM	15900 nM	29.7 µM	8490 nM	21.8 µM	11.4 µM	29.1 µM	8.11 µM	22.8 µM	14.6 µM	31.6 µM	16.8 µM	32.1 µM	11.3 µM
COC1=CC(=O)c2nc(-c3ccncc3)[nH]c2C1=O	> 100000 nM	> 100 µM	> 100 µM	> 100000 nM	> 100 µM	> 100000 nM	> 100 µM	> 100000 nM	> 100 µM	> 100000 nM	> 100 µM	> 100 µM	> 100 µM	> 100 µM	> 100 µM	45.3 µM	> 100 µM	> 100 µM	> 100 µM	> 100 µM
CC(C)CCC[C@@H](C)[C@H]1CC[C@H]2[C@@H]3CC=C4C[C@@H](C(C(=O)O)C(=O)O)CC[C@]4(C)[C@H]3CC[C@]12C	148 nM	0.612 µM	0.632 µM	153 nM	0.527 µM	248 nM	2.05 µM	86.2 nM	0.216 µM	113 nM	0.266 µM	0.166 µM	1.12 µM	0.117 µM	0.292 µM	0.207 µM	4.35 µM	0.237 µM	8.91 µM	0.165 µM
CCCCCCCCCCCOc1ccc(C(=O)C(=O)c2ccc(OCCCCCCCCCCC)c(OCCCCCCCCCCC)c2)cc1OCCCCCCCCCCC		> 100 µM	> 100 µM		> 100 µM		> 100 µM		> 100 µM		> 100 µM		> 100 µM		> 100 µM		> 100 µM		> 100 µM	
COC(=O)[C@@H]1[C@H](O)[C@H](C)[C@H](O)[C@@](C)(O)/C=C\C=C(C)C(=O)Nc2c(C)c(OC(C)=O)c3c(c2O)C(=O)C(C)=C2OCOC(=C23)C(C)=C[C@@](C)(O)[C@H](O)[C@@H](C)[C@H]1OC(C)=O	42500 nM	> 100 µM and 66.9 µM	> 100 µM	17800 nM	> 100 µM and 66.9 µM and 43.6 µM		> 100 µM		> 100 µM	20500 nM	> 100 µM and 66.9 µM and 38.4 µM		> 100 µM and 66.9 µM	> 66.9 µM	> 100 µM	63.2 µM	> 100 µM and 66.9 µM	> 66.9 µM	> 100 µM	
COC(=O)CC1CCN(C#N)CC1CC[N+](=O)[O-] (stereo not drawn)		> 100 µM	> 100 µM		> 100 µM		> 100 µM		> 100 µM		> 100 µM		> 100 µM		> 100 µM		> 100 µM		> 100 µM	
C/C(CC(=O)CCC(=O)Nc1cccc(C(F)(F)F)c1)=N\NC(=O)NN		> 100 µM	> 100 µM		> 100 µM		> 100 µM		> 100 µM		> 100 µM		> 100 µM		> 100 µM		> 100 µM		> 100 µM	
COc1ccc2c(C3=C(c4cn(C)c5ccccc45)C(=O)NC3=O)cn(C)c2c1	116 nM	> 25 µM	> 25 µM	74.2 nM	0.902 µM	240 nM	> 24 µM	54 nM	0.215 µM	89.9 nM	2.57 µM	0.147 µM	> 25 µM	0.111 µM	7.24 µM	0.258 µM	> 25 µM	> 25 µM	> 25 µM	> 25 µM
C#Cc1ccc(-n2c(/C=C/c3ccc(C(F)(F)F)cc3)nc3ncccc3c2=O)cc1	1740 nM	3.68 µM	3.7 µM	1650 nM	3.08 µM	3010 nM	8.81 µM	2340 nM	5.76 µM	1490 nM	2.87 µM	1.96 µM	4.02 µM	1.79 µM	3.44 µM	1.58 µM	3.29 µM	1.91 µM	4.25 µM	2.19 µM
O=C(/C=C/C12c3ccccc3C(c3ccccc31)C1C(=O)NC(=O)C12)c1ccncc1 (stereo not drawn)	1460 nM	3.94 µM	7.75 µM	1610 nM	3.74 µM	2570 nM	9.17 µM	14100 nM	28.3 µM	1720 nM	3.25 µM	2.39 µM	8 µM	1.85 µM	4.42 µM	2.65 µM	9.7 µM	2.33 µM	7.46 µM	2.61 µM
c1ccc2cc(-c3cc(-c4cc(-c5ccc6ccccc6c5)on4)no3)ccc2c1		> 100 µM	> 100 µM		> 100 µM		> 100 µM		> 100 µM		> 100 µM		> 100 µM		> 100 µM		> 100 µM		> 100 µM	
O=C(Nc1ccc(Cl)c(Cl)c1)Nc1ccc(Cl)c(Cl)c1	2900 nM and 3010 nM	11.9 µM and 11.2 µM	13.3 µM and 5.86 µM	1680 nM and 1250 nM	5.67 µM and 3.03 µM	2640 nM and 2310 nM	10.2 µM and 6.6 µM		2.79 µM and 5.18 µM	1740 nM and 1770 nM	3.35 µM and 3.18 µM	4.2 µM and 3.36 µM	22.2 µM and 10.5 µM	3.04 µM and 2.52 µM	11.6 µM and 6.99 µM	2.98 µM and 3.57 µM	14.6 µM and 47.7 µM	3.03 µM and 3.7 µM	15.4 µM and 23 µM	3.3 µM and 2.59 µM
